The values below are quoted from earlier work in patent publication US20100285123A1, “Controlled Release Dosage Formulation of Duloxetine” (priority 2005, published 2010).

Counter-ions that a name gives are not always drawn.

The conditions of data set [1]: patients, acute treatment of major depression.
For data set [2] the following is noted: gastric pH.

`Fc1ccc([C@@H]2CCNC[C@H]2COc2ccc3c(c2)OCO3)cc1` [Paroxetine]: in data set [1], the headache reported is reported as 11.5%, the incidence of nausea is 16.1% and the insomnia reported is listed as 8.0%.
On to `CNCC[C@H](Oc1cccc2ccccc12)c1cccs1` [Duloxetine hydrochloride], for which, under “110 of 1279 patients”, the “patients who did not experience any treatment experienced related adverse event” value was 8.6%. For the same compound, the “patients discontinued due to adverse events” value (218 of 1279 patients, major depression, long-term) was 17.0%. In addition, the “headache, patients reporting” value (389 of 1279 patients) is 30.4%. Further, the “insomnia, patients reporting” value (400 of 1279 patients) is on record as 31.3%. Also, the “nausea, patients reporting” value (435 of 1279 patients) was 34.0%. Moreover, under “1169 of 1279 patients”, the “patients who experienced at least one or more treatment experienced adverse event” value is 91.4%. Also, the “stability in acidic environment” value in data set [2] was “unstable”.
